Measured values from US10703760B2, “Morphic forms of marizomib and uses thereof” (Celgene International II Sàrl, priority 2016, dated 2020).
≈ marks a conversion by molar mass, not a printed value.

Experiments:
[1] = Approximate solubility of Sample 4 by solvent aliquot addition, visual inspection; post-solubility storage; assay type: physicochemical; conditions: for solubility: thermodynamic from solid
Protocol: Weighed samples of MRZ, Sample 4 were treated with aliquots of the test solvents or solvent mixtures at ambient temperature. Complete dissolution of the test material was determined by visual inspection. Solubility was estimated based on the total solvent volume used to provide complete dissolution. The actual solubility may be greater than the value calculated because of the use of solvent aliquots that were too large or due to a slow rate of dissolution. If complete dissolution was not achieved during the experiment, the solubility is expressed as “less than”. If complete dissolution was achieved by only one aliquot addition, the value is reported as “larger than”. As set forth in Table-9, the ratio of solvent mixtures are given by volume. Solubilities are estimated at ambient temperature and reported to the nearest mg/mL; if complete dissolution was not achieved, the value is reported as “<”; the actual solubility may be greater than the reported value due to the use of solvent aliquots that were too large or due to a slow rate of dissolution. Post-solubility samples were stored at 2-8° C. for 15-16 days followed by 1 day at ambient storage before visual inspection for precipitation. Post-solubility samples were visually inspected after 2-3 days of ambient storage. Formation system A is: 55% propylene glycol+5% ethanol+40% citrate buffer (10 mM; pH 5). Formation system B is: 14/86 (v/v) H2O/tert-butyl alcohol containing 30 mg/mL sucrose, and titrated with HCl to pH 3.2±0.2.

[2] = Thermogravimetric analysis (TGA); assay type: physicochemical
Protocol: TGA data were collected on a TA Instruments Q500 TGA, equipped with a 16-position auto-sampler. The instrument was temperature calibrated using certified Alumel™ and Nickel. Typically 5-10 mg of each sample was loaded onto a pre-tared aluminum DSC pan and heated at 10° C./min from ambient temperature to 350° C. A nitrogen purge at 60 ml/min was maintained over the sample.
TG analyses were performed using a TA Instruments Q5000 IR thermogravimetric analyzer. Temperature calibration was performed using nickel and Alumel™. Each sample was placed in an aluminum pan. The sample was hermetically sealed, the lid pierced, then inserted into the TG furnace. The furnace was heated under nitrogen.

Question: For `C[C@@]12OC(=O)[C@]1([C@@H](O)[C@@H]1C=CCCC1)NC(=O)[C@@H]2CCCl` [Sample 4, marizomib], which solubility ([1]; aqueous with cosolvent or surfactant or cyclodextrin, Formulation System A (55% propylene glycol + 5% EtOH + 40% citrate buffer 10 mM pH 5), ambient temperature) is on record?
Answer: < 1 mg/mL

Question: And the solubility ([1]; aqueous with cosolvent or surfactant or cyclodextrin, Formulation System B (14/86 v/v H2O/tBA, 30 mg/ml sucrose, pH 3.2), ambient temperature)?
Answer: 6 mg/mL (≈ 19.1 mM)

Question: And the solubility ([1]; organic solvent or mixture, 1-propanol, ambient temperature)?
Answer: 2 mg/mL (≈ 6.37 mM)

Question: What about the solubility ([1]; organic solvent or mixture, 2,2,2-trifluoroethanol, ambient temperature) of the same compound?
Answer: < 1 mg/mL

Question: And the solubility ([1]; organic solvent or mixture, 2-Me THF, ambient temperature)?
Answer: 32 mg/mL (≈ 102 mM)

Question: And the solubility ([1]; organic solvent or mixture, 20:80 2-MeTHF/MeOAc (v/v), ambient temperature)?
Answer: 34 mg/mL (≈ 108 mM)

Question: What about the solubility ([1]; organic solvent or mixture, 20:80 CHCl3/DCM (v/v), ambient temperature) of the same compound?
Answer: 3 mg/mL (≈ 9.56 mM)

Question: And the solubility ([1]; organic solvent or mixture, 20:80 MEK/IPA (v/v), ambient temperature)?
Answer: 10 mg/mL (≈ 31.9 mM)

Question: And the solubility ([1]; organic solvent or mixture, 20:80 MEK/MIBK (v/v), ambient temperature)?
Answer: 12 mg/mL (≈ 38.2 mM)

Question: And the solubility ([1]; organic solvent or mixture, 20:80 NMP/1-propanol (v/v), ambient temperature)?
Answer: 19 mg/mL (≈ 60.6 mM)

Question: What about the solubility ([1]; organic solvent or mixture, 20:80 NMP/IPA (v/v), ambient temperature) of the same compound?
Answer: 19 mg/mL (≈ 60.6 mM)

Question: And the solubility ([1]; organic solvent or mixture, 20:80 THF/nitromethane (v/v), ambient temperature)?
Answer: 15 mg/mL (≈ 47.8 mM)

Question: And the solubility ([1]; organic solvent or mixture, 25:75 ACN/MTBE (v/v), ambient temperature)?
Answer: 10 mg/mL (≈ 31.9 mM)

Question: What about the solubility ([1]; organic solvent or mixture, 25:75 DMF/anisole (v/v), ambient temperature) of the same compound?
Answer: 17 mg/mL (≈ 54.2 mM)

Question: And the solubility ([1]; organic solvent or mixture, 50:50 EtOAc/cyclohexane (v/v), ambient temperature)?
Answer: 4 mg/mL (≈ 12.7 mM)

Question: And the solubility ([1]; organic solvent or mixture, 50:50 EtOAc/isooctane (v/v), ambient temperature)?
Answer: 2 mg/mL (≈ 6.37 mM)

Question: What about the solubility ([1]; organic solvent or mixture, 50:50 MeOH/Et2O (v/v), ambient temperature) of the same compound?
Answer: 21 mg/mL (≈ 66.9 mM)

Question: What about the solubility ([1]; organic solvent or mixture, 50:50 THF/hexanes (v/v), ambient temperature) of the same compound?
Answer: 21 mg/mL (≈ 66.9 mM)

Question: And the solubility ([1]; organic solvent or mixture, 50:50 acetone/heptane (v/v), ambient temperature)?
Answer: 12 mg/mL (≈ 38.2 mM)

Question: What about the solubility ([1]; organic solvent or mixture, 50:50 acetone/iso-octane (v/v), ambient temperature) of the same compound?
Answer: 12 mg/mL (≈ 38.2 mM)

Question: And the solubility ([1]; organic solvent or mixture, ACN, ambient temperature)?
Answer: 10 mg/mL (≈ 31.9 mM)

Question: What about the solubility ([1]; organic solvent or mixture, CHCl3, ambient temperature) of the same compound?
Answer: 2 mg/mL (≈ 6.37 mM)

Question: What about the solubility ([1]; organic solvent or mixture, DCM, ambient temperature) of the same compound?
Answer: 2 mg/mL (≈ 6.37 mM)

Question: And the solubility ([1]; organic solvent or mixture, DMSO, ambient temperature)?
Answer: > 83 mg/mL

Question: And the solubility ([1]; organic solvent or mixture, EtOAc, ambient temperature)?
Answer: 15 mg/mL (≈ 47.8 mM)

Question: What about the solubility ([1]; organic solvent or mixture, Formic acid, ambient temperature) of the same compound?
Answer: 15 mg/mL (≈ 47.8 mM)

Question: What about the solubility ([1]; organic solvent or mixture, IPA, ambient temperature) of the same compound?
Answer: 6 mg/mL (≈ 19.1 mM)

Question: And the solubility ([1]; organic solvent or mixture, MEK, ambient temperature)?
Answer: 33 mg/mL (≈ 105 mM)

Question: And the solubility ([1]; organic solvent or mixture, MIBK, ambient temperature)?
Answer: 11 mg/mL (≈ 35.1 mM)

Question: What about the solubility ([1]; organic solvent or mixture, MeOAc, ambient temperature) of the same compound?
Answer: 20 mg/mL (≈ 63.7 mM)

Question: What about the solubility ([1]; organic solvent or mixture, NMP, ambient temperature) of the same compound?
Answer: 5 mg/mL (≈ 15.9 mM)

Question: And the solubility ([1]; organic solvent or mixture, THF, ambient temperature)?
Answer: 49 mg/mL (≈ 156 mM)

Question: And the solubility ([1]; organic solvent or mixture, [EMIm][Cl], ambient temperature)?
Answer: < 2 mg/mL

Question: And the solubility ([1]; organic solvent or mixture, [EMIm][NTF2], ambient temperature)?
Answer: 1 mg/mL (≈ 3.19 mM)

Question: What about the solubility ([1]; organic solvent or mixture, acetic acid, ambient temperature) of the same compound?
Answer: 10 mg/mL (≈ 31.9 mM)

Question: What about the solubility ([1]; organic solvent or mixture, acetone, ambient temperature) of the same compound?
Answer: 39 mg/mL (≈ 124 mM)

Question: What about the solubility ([1]; organic solvent or mixture, anisole, ambient temperature) of the same compound?
Answer: 2 mg/mL (≈ 6.37 mM)

Question: And the solubility ([1]; organic solvent or mixture, cyclohexanone, ambient temperature)?
Answer: 22 mg/mL (≈ 70.1 mM)

Question: And the solubility ([1]; organic solvent or mixture, dioxane, ambient temperature)?
Answer: 20 mg/mL (≈ 63.7 mM)

Question: What about the solubility ([1]; organic solvent or mixture, nitromethane, ambient temperature) of the same compound?
Answer: 2 mg/mL (≈ 6.37 mM)

Question: And the solubility ([1]; organic solvent or mixture, pyridine, ambient temperature)?
Answer: 36 mg/mL (≈ 115 mM)

Question: What about the solubility ([1]; organic solvent or mixture, tert-butanol, ambient temperature) of the same compound?
Answer: 3 mg/mL (≈ 9.56 mM)

Question: What about the “Precipitates formed during storage?” value ([1]; post-solubility sample in 1-propanol) of the same compound?
Answer: no

Question: And the “Precipitates formed during storage?” value ([1]; post-solubility sample in 2-Me THF)?
Answer: no

Question: What about the “Precipitates formed during storage?” value ([1]; post-solubility sample in 20:80 2-MeTHF/MeOAc) of the same compound?
Answer: no

Question: And the “Precipitates formed during storage?” value ([1]; post-solubility sample in 20:80 CHCl3/DCM)?
Answer: no

Question: What about the “Precipitates formed during storage?” value ([1]; post-solubility sample in 20:80 MEK/IPA) of the same compound?
Answer: no

Question: And the “Precipitates formed during storage?” value ([1]; post-solubility sample in 20:80 MEK/MIBK)?
Answer: no

Question: And the “Precipitates formed during storage?” value ([1]; post-solubility sample in 20:80 NMP/1-propanol)?
Answer: no

Question: What about the “Precipitates formed during storage?” value ([1]; post-solubility sample in 20:80 NMP/IPA) of the same compound?
Answer: no

Question: And the “Precipitates formed during storage?” value ([1]; post-solubility sample in 20:80 THF/nitromethane)?
Answer: no

Question: What about the “Precipitates formed during storage?” value ([1]; post-solubility sample in 25:75 ACN/MTBE) of the same compound?
Answer: no

Question: And the “Precipitates formed during storage?” value ([1]; post-solubility sample in 25:75 DMF/anisole)?
Answer: no

Question: What about the “Precipitates formed during storage?” value ([1]; post-solubility sample in 50:50 EtOAc/cyclohexane) of the same compound?
Answer: no

Question: And the “Precipitates formed during storage?” value ([1]; post-solubility sample in 50:50 EtOAc/isooctane)?
Answer: no

Question: And the “Precipitates formed during storage?” value ([1]; post-solubility sample in 50:50 MeOH/Et2O)?
Answer: no

Question: And the “Precipitates formed during storage?” value ([1]; post-solubility sample in 50:50 THF/hexanes)?
Answer: no

Question: And the “Precipitates formed during storage?” value ([1]; post-solubility sample in 50:50 acetone/heptane)?
Answer: no

Question: And the “Precipitates formed during storage?” value ([1]; post-solubility sample in 50:50 acetone/iso-octane)?
Answer: no

Question: And the “Precipitates formed during storage?” value ([1]; post-solubility sample in ACN)?
Answer: no

Question: What about the “Precipitates formed during storage?” value ([1]; post-solubility sample in CHCl3) of the same compound?
Answer: yes

Question: And the “Precipitates formed during storage?” value ([1]; post-solubility sample in DCM)?
Answer: no

Question: And the “Precipitates formed during storage?” value ([1]; post-solubility sample in DMSO)?
Answer: no

Question: And the “Precipitates formed during storage?” value ([1]; post-solubility sample in EtOAc)?
Answer: no

Question: What about the “Precipitates formed during storage?” value ([1]; post-solubility sample in Formic acid) of the same compound?
Answer: no

Question: And the “Precipitates formed during storage?” value ([1]; post-solubility sample in Formulation System B)?
Answer: no

Question: And the “Precipitates formed during storage?” value ([1]; post-solubility sample in IPA)?
Answer: no

Question: And the “Precipitates formed during storage?” value ([1]; post-solubility sample in MEK)?
Answer: yes (small amount)

Question: What about the “Precipitates formed during storage?” value ([1]; post-solubility sample in MIBK) of the same compound?
Answer: no

Question: And the “Precipitates formed during storage?” value ([1]; post-solubility sample in MeOAc)?
Answer: no

Question: And the “Precipitates formed during storage?” value ([1]; post-solubility sample in NMP)?
Answer: no

Question: What about the “Precipitates formed during storage?” value ([1]; post-solubility sample in THF) of the same compound?
Answer: no

Question: And the “Precipitates formed during storage?” value ([1]; post-solubility sample in acetic acid)?
Answer: no

Question: And the “Precipitates formed during storage?” value ([1]; post-solubility sample in acetone)?
Answer: no

Question: And the “Precipitates formed during storage?” value ([1]; post-solubility sample in anisole)?
Answer: no

Question: What about the “Precipitates formed during storage?” value ([1]; post-solubility sample in cyclohexanone) of the same compound?
Answer: no

Question: What about the “Precipitates formed during storage?” value ([1]; post-solubility sample in dioxane) of the same compound?
Answer: no

Question: What about the “Precipitates formed during storage?” value ([1]; post-solubility sample in nitromethane) of the same compound?
Answer: no

Question: And the “Precipitates formed during storage?” value ([1]; post-solubility sample in pyridine)?
Answer: no

Question: And the “Precipitates formed during storage?” value ([1]; post-solubility sample in tert-butanol)?
Answer: no

Question: And the “TGA weight loss prior to decomposition” value [2]?
Answer: negligible weight loss prior to decomp

Question: And the “TGA (onset, decomp.)” value ([2]; Sample 4 prior to testing)?
Answer: 168 °C (onset, decomp.)

Question: What about the “TGA: decomposition after” value ([2]; as stated in cocrystal discussion) of the same compound?
Answer: approximately 150 °C
